{
  "source": "patent US7816374B2",
  "about": "“Method of treating neutrophil-related diseases with topical anesthetics” (Mayo Foundation for Medical Education and Research, priority 2000, dated 2010)",
  "molecules": {"B1": {"name": "C5a: component of the complement system (protein, UniProt P01031 678-751, looked up)", "C5a anaphylatoxin": "TLQKKIEEIAAKYKHSVVKKCCYDGACVNNDETCEQRAARISLGPRCIKAFTECCVVASQLRANISHKDMQLGR", "modifications": "C5a anaphylatoxin", "notes": "component of the complement system"}, "B2": {"name": "G-CSF: granulocyte colony stimulating factor (protein, UniProt P09919 31-207, looked up)", "Granulocyte …": "TPLGPASSLPQSFLLKCLEQVRKIQGDGAALQEKLVSECATYKLCHPEELVLLGHSLGIPWAPLSSCPSQALQLAGCLSQLHSGLFLYQGLLQALEGISPELGPTLDTLQLDVADFATTIWQQMEELGMAPALQPTQGAMPAFASAFQRRAGGVLVASHLQSFLEVSYRVLRHLAQP"}},
  "key": {"[1]": {"tested_on": "neutrophils", "assay": "Neutrophil extracellular superoxide production (cytochrome c reduction plate assay)", "type": "cell-based, human", "conditions": "for stimulation of neutrophils to release extracellular superoxide: stimulus screen, G-CSF 5 ug/mL, IFN-γ 100 ng/mL, 1 ug/mL, IL-8 0.5, 1 and 10 ng/mL, LTB4 100 nM and 1 uM", "description": "Neutrophils were purified from heparinized venous blood of normal volunteers by sedimentation through a cushion of 1.085 gm/ml Percoll made in PIPES buffer, pH 7.4, supplemented with 50 mM NaCl, 5 mM KCl, 25 mM NaOH, and 5.4 mM glucose) and centrifuged at 2,000 rmp in a Beckman CS-6KR centrifuge for 30 minutes with no brake. Plasma, mononuclear cells, and Percoll layers were removed and the erythrocytes were lysed by osmotic shock.\nThe superoxide production was measured using cytochrome c reduction in a plate assay at a concentration of 50,000 neutrophils/well and was done in duplicate.\n(§1) Neutrophils were isolated in a Percoll gradient to remove PBMC.\nThe extracellular superoxide assay (Cytochrome C method) was performed as follows: 1) The wells of a 96-well plate were blocked with 50 ul of 1% HSA for at least 2 hours at 37° C. 2) The Cytochrome C mix (#C-2506, Sigma, St. Louis, Mo.) was prepared as follows: 2.4 mgs of Cytochrome C was resuspended in 1 mL HBSS/HEPES (pH 7.4). One mL of CytoC mix was required for every 0.5×10^6 cells used in the assay. 3) The blocked cells of the 96 well plate were washed twice with 200 μL saline. 4) 4× stimulus and inhibitor stocks were prepared HBSS/HEPES. The cells were resuspended in CytoC mix to 0.5×10^6 cells/mL and kept on ice until ready for use. 5) The final volume in all wells was 200 μL: 100 μl cell/CytoC mix suspension per well (0.05×10^6 cells/well); 50 μL stimulus (if present) per well and 50 μL inhibitor (if present) per well. If stimulus and/or inhibitor was not required for a well, the volume was made up with HBSS/HEPES so that the total volume in the well was 200 μL. 6) Stimuli, inhibitors and cells were added to the wells in the following order: 1) media filler; 2) inhibitors; 3) cells; and 4) stimuli. 7) The 96 well plate was placed in a ThermoMax plate reader and the OD550 was read at 37° C. The plate was read at time 0 and then every 10 minutes for 1 hour, then every 30 minutes for 3 hours. 8) The concentration of superoxide released was calculated by using the following formula to calculate the nmol of Cytochrome C reduced: 19.1*[OD550(time x)−OD550(time 0)]/0.05=nmol Cytochrome C reduced per 1×10^6 cells=nmol superoxide released per 1×10^6 cells."}, "[2]": {"assay": "Patient with inflammatory bowel disease-associated severe bronchitis treated with nebulized lidocaine", "type": "in vivo, human", "conditions": "nebulized lidocaine 100 mg four times daily; within six weeks; one patient", "description": "A patient with inflammatory bowel disease-associated severe bronchitis who had symptoms of copious sputum production (in excess of 150 mi/day), daily cough and chest tightness, and shortness of breath on exertion, who had not responded to topical or systemic glucocorticoids and multiple rounds of antibiotics over an 18 month period was treated. Lamos, J. et al., Arch Internationales De Pharmacodynamie et de Therapie 331:179-188 (1996)."}, "[3]": {"conditions": "cited from earlier work"}, "[4]": {"assay": "Clinical trial of nebulized lidocaine in severe asthma", "type": "in vivo, human", "conditions": "twenty patients with severe asthma; 100 mg nebulized lidocaine x4 qd"}, "[5]": {"assay": "Case report of patient with bronchitis treated with lidocaine inhalation", "type": "in vivo, human", "description": "The patient was a person first seen in 1996 with a six month history of harsh cough affecting their both during the night and the day. Copious (about 50 ml per day), thick, yellow to white sputum was produced. They were often awakened at night with chest heaviness and dyspnea. […] When initially evaluated, the patient was receiving prednisone, 30 mg every other day, Salmeterol twice daily and Asthmacort four inhalations four times a day."}, "[6]": {"tested_on": "eosinophils", "conditions": "in vitro; Okada et al. 1998; cited from earlier work"}, "[7]": {"assay": "Serum concentration after lidocaine nebulization (PARI II device)", "type": "in vivo, human", "conditions": "nebulization of up to 375 mg over 10 minutes; four normal subjects and four asthma patients; >1 μg/ml in only one patient out of eight", "source_text": "Scott, D. B. et al., Br J Anaesth. 48:899-902 (1976); Chinn, W. M. et al., Chest 71:346-348 (1977)."}, "[8]": {"tested_on": "neutrophils", "conditions": "in vitro, cited from earlier work"}, "[9]": {"tested_on": "neutrophils", "assay": "Lactoferrin release from stimulated neutrophils (ELISA)", "type": "cell-based, human", "conditions": "FIG. 7", "description": "as §1\nTo measure lactoferrin, an ELSIA kit was purchased from Calbiochem (San Diego, Calif.) and the protocols and procedures were followed therein.\nWhen neutrophils begin to invade injured tissue, feedback control of inflammation begins with degranulation of neutrophils and massive release of lactoferrin. The amount of lactoferrin released from neutrophils stimulated with PMA, TNF-α and PAF was measured."}, "[10]": {"tested_on": "sputum neutrophilia", "assay": "Sputum cell counts before and after four weeks of nebulized lidocaine in patients with chronic protracted post-viral or post-irritant cough", "type": "in vivo, human", "parameters": "wbc before / wbc after / eos before / eos after: unit not given here", "description": "Yamamoto, C. et al., Chest 112:505-510 (1997); Peleman, R. A. et al., Eur. Resp. Journal 13:839-843 (1999); Gibson, P. G. et al., Thorax 44:693-699 (1989). Induction, collection, and processing of sputum is performed according to the method of Pin and Hargreave. Briefly, if the patient is unable to spontaneously produce a 5 cc sputum sample, sputum induction is performed using ultrasonically nebulized hypertonic saline administered in progressive 2 minute increments followed by attempts to cough and produce sputum. The nebulization continues until a total of 12 minutes have elapsed or the patient produces 5 cc of sputum. The initial specimen is collected in a 50 ml conical tube, vortexed and 1 cc of the sputum is aspirated and placed on ice for cytokine analysis. The remaining volume is weighed, and mixed with equal volumes of dithiothreitol, vortexed, then rocked for 15 min at 37° C. with frequent vortexing. The specimen is analyzed for total and differential cell counting."}, "[11]": {"conditions": "six patients, after four weeks of nebulized lidocaine"}},
  "note": "“And” between values parts separate entries of the source, which are not always exact repeats. Identical values can stand only once. “Also recorded” adds a separate entry of the source.",
  "data": [
    {"molecule": "CCCCCCCCCCCCCC(=O)O[C@@H]1[C@@H](C)[C@@]2(O)[C@@H](C=C(CO)C[C@]3(O)C(=O)C(C)=C[C@@H]23)[C@@H]2C(C)(C)[C@]12OC(C)=O", "note": "[PMA, phorbol-myristate acetate]", "values": [
      {"measurement": "stimulation of neutrophils to release extracellular superoxide", "setting": "[1]", "result": "stimulated; also recorded: stimulates superoxide anion very considerably"}
    ]},
    {"molecule": "IL-8: interleukin 8", "values": [
      {"measurement": "stimulation of neutrophils to release extracellular superoxide", "setting": "[1]", "result": "did not stimulate"}
    ]},
    {"molecule": "TNF-α", "values": [
      {"measurement": "stimulation of neutrophils to release extracellular superoxide", "setting": "[1]", "result": "stimulated; also recorded: considerable superoxide anion is released"}
    ]},
    {"molecule": "CCCCC/C=C\\C[C@@H](O)/C=C/C=C/C=C\\[C@@H](O)CCCC(=O)O", "note": "[LTB4, leukotriene B4]", "values": [
      {"measurement": "stimulation of neutrophils to release extracellular superoxide", "setting": "[1]", "result": "did not stimulate"}
    ]},
    {"molecule": "CCN(CC)CC(=O)Nc1c(C)cccc1C", "note": "[lidocaine, (2-diethylamino)-N-(2,6-dimethylphenyl)acetamide]", "values": [
      {"measurement": "cough and chest tightness", "setting": "[2]", "result": "disappeared"},
      {"measurement": "sputum volume", "setting": "[2]", "result": "diminished to zero"},
      {"measurement": "systemic glucocorticoid use in steroid-dependent asthma", "setting": "[3]; lidocaine inhalation, most adult and pediatric patients", "result": "reduces or eliminates systemic glucocorticoids"},
      {"measurement": "topical glucocorticoid use in mild to moderate asthma", "setting": "[3]; nebulized lidocaine", "result": "able to replace topical glucocorticoids"},
      {"measurement": "peripheral blood eosinophils when topical glucocorticoids were withdrawn", "setting": "[3]; nebulized lidocaine, mild to moderate asthma", "result": "prevented the rise"},
      {"measurement": "patients able to discontinue or reduce the use of oral GC by 80%", "setting": "[4]", "result": "seventeen"},
      {"measurement": "side effects", "setting": "[4]", "result": "minimal side effects"},
      {"measurement": "TNF-α stimulated neutrophil superoxide anion production", "setting": "[1]; 3 mM lidocaine, TNF-alpha stimulus, 50,000 neutrophils/well", "result": "virtually totally suppresses; also recorded: almost totally inhibited"},
      {"measurement": "C5a stimulated neutrophil superoxide anion production", "setting": "[1]; C5a stimulus, FIGS. 6A and 6B", "result": "suppresses"},
      {"measurement": "stimulation of neutrophils (extracellular superoxide) by stimuli", "setting": "[1]; all stimuli with the exception of PMA", "result": "inhibits the stimulation of neutrophils in a dose dependent manner"},
      {"measurement": "PMA induced neutrophil superoxide anion production", "setting": "[1]; lidocaine, PMA stimulus", "result": "does not alter this production; also recorded: not inhibited"},
      {"measurement": "superoxide anion production by unstimulated neutrophils", "setting": "[1]; presence and absence of 3 mM lidocaine, no stimulus", "result": "no superoxide anion is produced"},
      {"measurement": "patient-reported course on continued therapy", "setting": "[5]; lidocaine by inhalation for the following year, occasional antibiotics", "result": "continued improvement"},
      {"measurement": "sputum volume and cough", "setting": "[5]; lidocaine by inhalation, over a span of three weeks, one patient", "result": "diminished strikingly"},
      {"measurement": "cytokine-stimulated eosinophilopoesis and prolongation of survival, activation, respiratory burst, and degranulation of eosinophils", "setting": "[6]", "result": "inhibit"},
      {"measurement": "serum concentration", "setting": "[7]", "result": 1500, "unit": "ng/mL"},
      {"measurement": "activation of neutrophils by G-CSF, TNF-α and GM-CSF", "setting": "[8]", "result": "inhibits activation"},
      {"measurement": "neutrophil aggregation and degranulation", "setting": "[8]", "result": "Inhibition"},
      {"measurement": "depolarization of neutrophil membrane potential, superoxide generation and chemiluminescence response in neutrophils", "setting": "[8]; concentration-dependent manner", "result": "inhibits"},
      {"measurement": "lactoferrin release in PMA stimulated neutrophils", "setting": "[9]; PMA stimulus", "result": "may have an effect"},
      {"measurement": "lactoferrin release in neutrophils stimulated with TNF", "setting": "[9]; TNF stimulus", "result": "significantly inhibits"},
      {"measurement": "cough", "setting": "[10]; [11]", "result": "clearing of their cough"},
      {"measurement": "sputum neutrophils", "setting": "[10]; [11]", "result": "reduction of sputum neutrophils"},
      {"measurement": "pmn after", "setting": "[10]; sputum PMN of individual patients after four weeks of nebulized lidocaine", "result": "568,400 and 352,000 and 617,760 and 79,900 and 1,612,800 and 551,200"},
      {"measurement": "pmn before", "setting": "[10]; sputum PMN of individual patients before lidocaine treatment (baseline)", "result": "1,032,200 and 3,569,000 and 1,566,000 and 2,772,000 and 4,093,400 and 1,256,250"},
      {"measurement": "wbc after", "setting": "[10]; sputum WBC of individual patients after four weeks of nebulized lidocaine", "result": "1,160,000 and 1,600,000 and 2,808,000 and 85,000 and 4,480,300 and 2,120,000"},
      {"measurement": "wbc before", "setting": "[10]; sputum WBC of individual patients before lidocaine treatment (baseline)", "result": "3,330,000 and 6,050,000 and 2,700,000 and 4,760,000 and 2,512,500"},
      {"measurement": "eos after", "setting": "[10]; sputum eosinophils of individual patients after four weeks of nebulized lidocaine", "result": "0 (2×) and 96,000 and 2,808 and 134,400 and 42,500"},
      {"measurement": "eos before", "setting": "[10]; sputum eosinophils of individual patients before lidocaine treatment (baseline)", "result": "0 (3×) and 484,000 and 12,798 and 1,384,200"}
    ]},
    {"molecule": "f-met-leu-phe [fMLP]", "values": [
      {"measurement": "stimulation of neutrophils to release extracellular superoxide", "setting": "[1]", "result": "stimulated"}
    ]},
    {"molecule": "GM-CSF: granulocyte macrophage colony stimulating factor", "values": [
      {"measurement": "stimulation of neutrophils to release extracellular superoxide", "setting": "[1]", "result": "stimulated"}
    ]},
    {"molecule": "IFN-γ: interferon gamma", "values": [
      {"measurement": "stimulation of neutrophils to release extracellular superoxide", "setting": "[1]", "result": "did not stimulate"}
    ]},
    {"molecule": "B1", "values": [
      {"measurement": "stimulation of neutrophils to release extracellular superoxide", "setting": "[1]", "result": "stimulated; also recorded: stimulates superoxide anion production"}
    ]},
    {"molecule": "B2", "values": [
      {"measurement": "stimulation of neutrophils to release extracellular superoxide", "setting": "[1]", "result": "did not stimulate"}
    ]}
  ]
}
